According to the supplement of paper PMC13380429:

Legend:
Details in all cases: 72 h
Vero E6 [1] = experiment: relative viability EC50 (midpoint between 100% and the lowest measured viability); higher = less toxic
Caco-2 [2] = experiment: as above
U2OS [3] = experiment: as above
HepG2 [4] = experiment: as above
Calu-3 [5] = experiment: as above
Vero E6 [6] = experiment: drug sensitivity score (DSS) for viability; higher = more toxic; extreme values may be limits of the assay
Caco-2 [7] = experiment: as above
U2OS [8] = experiment: as above
HepG2 [9] = experiment: as above
Calu-3 [10] = experiment: as above
Vero E6 [11] = experiment: cell viability relative to DMSO; higher = less toxic
Caco-2 [12] = experiment: as above
U2OS [13] = experiment: as above
HepG2 [14] = experiment: as above
Calu-3 [15] = experiment: as above

Row | SMILES | relative viability EC50 (Vero E6 [1]) | relative viability EC50 (Caco-2 [2]) | relative viability EC50 (U2OS [3]) | relative viability EC50 (HepG2 [4]) | relative viability EC50 (Calu-3 [5]) | drug sensitivity score (Vero E6 [6]) | drug sensitivity score (Caco-2 [7]) | drug sensitivity score (U2OS [8]) | drug sensitivity score (HepG2 [9]) | drug sensitivity score (Calu-3 [10]) | cell viability (Vero E6 [11]; 1 nM) | cell viability (Vero E6 [11]; 10 nM) | cell viability (Vero E6 [11]; 100 nM) | cell viability (Vero E6 [11]; 1000 nM) | cell viability (Vero E6 [11]; 10000 nM) | cell viability (Caco-2 [12]; 1 nM) | cell viability (Caco-2 [12]; 10 nM) | cell viability (Caco-2 [12]; 100 nM) | cell viability (Caco-2 [12]; 1000 nM) | cell viability (Caco-2 [12]; 10000 nM) | cell viability (U2OS [13]; 1 nM) | cell viability (U2OS [13]; 10 nM) | cell viability (U2OS [13]; 100 nM) | cell viability (U2OS [13]; 1000 nM) | cell viability (U2OS [13]; 10000 nM) | cell viability (HepG2 [14]; 1 nM) | cell viability (HepG2 [14]; 10 nM) | cell viability (HepG2 [14]; 100 nM) | cell viability (HepG2 [14]; 1000 nM) | cell viability (HepG2 [14]; 10000 nM) | cell viability (Calu-3 [15]; 1 nM) | cell viability (Calu-3 [15]; 10 nM) | cell viability (Calu-3 [15]; 100 nM) | cell viability (Calu-3 [15]; 1000 nM) | cell viability (Calu-3 [15]; 10000 nM)
1 | O=C(O)/C=C1\CCCc2ccccc2[C@H]1O (racemic) [NCS-382] | > 10 µM | > 10 µM | > 10 µM | > 10 µM | > 10 µM | 0 | 0 | 0 | 0.1 | 0 | 104% | 97.2% | 103% | 99.1% | 101% | 98.6% | 99.3% | 91.8% | 97% | 88.7% | 96.7% | 102% | 96% | 102% | 97.2% | 108% | 96.5% | 102% | 99.1% | 87.2% | 93.4% | 95.3% | 99.3% | 95.5% | 101%
2 | OC[C@H]1NC[C@@H](O)[C@@H](O)[C@@H]1O [1-deoxymannojirimycin] | > 10 µM | > 10 µM | > 10 µM | > 10 µM | > 10 µM | 0 | 0 | 0 | 0 | 0 | 99.1% | 93% | 98.2% | 96.8% | 107% | 95.3% | 96.8% | 98.2% | 97% | 104% | 96.8% | 102% | 95.8% | 100% | 108% | 109% | 96.2% | 94.5% | 93.1% | 97.7% | 106% | 96.8% | 97% | 95.4% | 90.8%
3 | Nc1nccc2c1ncn2C1C=C(CO)C(O)C1O (stereo not drawn) [3-deazaneplanocin-A] | 0.47 µM | > 10 µM |  | 0.832 µM | > 10 µM | 9.4 | 2 | 6.3 | 8.8 | 1 | 98.8% | 100% | 89.1% | 56.6% | 36.2% | 102% | 104% | 99.3% | 88% | 77% | 105% | 97.4% | 91.8% | 69.3% | 57.8% | 105% | 106% | 86.7% | 62.7% | 25.7% | 97.4% | 97.5% | 108% | 85.9% | 89.9%
4 | CCCN(C/C=C/I)C1CCc2cccc(O)c2C1 (stereo not drawn) [8-hydroxy-PIPAT] | > 10 µM | > 10 µM | > 10 µM | > 10 µM | > 10 µM | 0 | 0 | 0 | 0.2 | 0 | 97.7% | 99.7% | 100% | 99.3% | 92.9% | 107% | 95.3% | 100% | 93.8% | 101% | 103% | 100% | 102% | 97.6% | 97.8% | 101% | 105% | 111% | 104% | 83.4% | 101% | 101% | 112% | 103% | 99.5%
5 | C#Cc1cccc2c1c(C(=O)c1ccc(Cn3c(C)nc4cnccc43)c(F)c1)cn2C(=O)N(C)C [ABT-491] | > 10 µM | > 10 µM | > 10 µM | > 10 µM | > 10 µM | 0 | 0 | 0 | 0 | 0 | 103% | 97.1% | 97.1% | 98.4% | 95.5% | 101% | 86.1% | 91.1% | 91.3% | 93.3% | 99.7% | 98.3% | 96.6% | 98.5% | 94.7% | 102% | 110% | 95.6% | 100% | 91.4% | 97.2% | 102% | 100% | 106% | 106%
6 | c1ccc(C(NCCNC(c2ccccc2)c2ccccc2)c2ccccc2)cc1 [AMN-082] | > 10 µM | > 10 µM | > 10 µM | > 10 µM | > 10 µM | 0 | 0 | 0 | 0.2 | 0 | 104% | 95% | 95% | 93.6% | 114% | 98.9% | 104% | 96.5% | 94.8% | 94.8% | 96.5% | 97.8% | 96.7% | 105% | 93.8% | 103% | 92.4% | 108% | 98.9% | 87.4% | 99% | 97.7% | 96.9% | 95.7% | 92.2%
7 | COc1cc(C(=O)c2c(C)oc3c(O)c(OC)ccc23)cc(OC)c1OC [BNC105] | < 0.001 µM | < 0.001 µM | 0.0073 µM | 0.0055 µM | 0.0078 µM | 38.3 | 30.3 | 31.5 | 24.7 | 27 | 34.9% | 22.7% | 22.8% | 27.9% | 30.4% | 62.8% | 39.6% | 41.4% | 37.9% | 41.1% | 100% | 44.7% | 20.9% | 19.3% | 19.7% | 86.2% | 60.4% | 42.6% | 35.7% | 38% | 106% | 54.6% | 33.7% | 39.2% | 30.9%
8 | Nc1n[nH]c2nc3ccccc3nc12 [CDK1-5-inhibitor] | > 10 µM | > 10 µM | > 10 µM | > 10 µM | > 10 µM | 0 | 0 | 0 | 0 | 1.4 | 99.8% | 96.1% | 100% | 100% | 97.4% | 101% | 105% | 97.8% | 96.2% | 104% | 86.3% | 95.2% | 95.9% | 100% | 102% | 102% | 98.6% | 107% | 101% | 104% | 98.3% | 102% | 97.1% | 86% | 90.6%
9 | O=C1C2C=Nc3ccccc3C2=NN1c1ccc(Cl)cc1 (stereo not drawn) [CGS-9896] | > 10 µM | > 10 µM | > 10 µM | > 10 µM | > 10 µM | 0 | 0.6 | 0 | 0 | 0 | 99.8% | 103% | 92.6% | 97.9% | 95.8% | 103% | 101% | 94.2% | 93% | 82.7% | 95.6% | 100% | 91.1% | 94% | 91.3% | 97.1% | 88.6% | 91% | 94.1% | 102% | 93.7% | 104% | 87.9% | 95.8% | 103%
10 | COc1ccc(OC[C@@H]2c3cc(OC)c(OC)cc3CCN2C(=O)c2cccc(Cl)c2)cc1 [CIQ] | > 10 µM | > 10 µM | > 10 µM | > 10 µM | > 10 µM | 0 | 0.8 | 0 | 0 | 0 | 100% | 97.4% | 93.7% | 94% | 98.6% | 101% | 102% | 91.8% | 101% | 76.4% | 96.6% | 100% | 93.9% | 104% | 91.3% | 101% | 96.5% | 91.4% | 89.9% | 106% | 100% | 102% | 100% | 109% | 92.7%
11 | CC(=O)OCC(=O)[C@@]12N=C(C)O[C@@H]1C[C@H]1[C@@H]3CCC4=CC(=O)C=C[C@]4(C)[C@H]3[C@@H](O)C[C@@]12C [Deflazacort (Calcort)] | > 10 µM | > 10 µM | > 10 µM | > 10 µM | > 10 µM | 0 | 0 | 0 | 0 | 0.4 | 99.1% | 99% | 102% | 102% | 102% | 97.8% | 93.3% | 92.8% | 101% | 97.9% | 99.7% | 95.6% | 99.7% | 94.4% | 97.7% | 109% | 103% | 110% | 102% | 95.9% | 102% | 92.9% | 97.2% | 80.9% | 93.1%
12 | NC(=O)C1CCCc2c1[nH]c1ccc(Cl)cc21 (stereo not drawn) [EX-527] | > 10 µM | > 10 µM | > 10 µM | > 10 µM | > 10 µM | 0 | 0 | 0 | 0 | 0 | 94.1% | 107% | 93.7% | 98.9% | 109% | 99.7% | 94.8% | 98.5% | 92% | 103% | 95.9% | 93.2% | 105% | 93.4% | 98.1% | 93.3% | 107% | 98% | 110% | 106% | 107% | 101% | 107% | 96.6% | 94.7%
13 | Cc1ccc(Cl)cc1N(CC(=O)Nc1c(F)cccc1F)S(C)(=O)=O [FPH1-(BRD-6125)] | > 10 µM | > 10 µM | > 10 µM | > 10 µM | > 10 µM | 0 | 0 | 0 | 0 | 0 | 98.3% | 103% | 97.6% | 97.2% | 99.1% | 104% | 97.2% | 111% | 99.7% | 107% | 97.7% | 103% | 105% | 101% | 97.8% | 100% | 107% | 104% | 94.5% | 108% | 110% | 93.4% | 97.8% | 105% | 87.3%
14 | N=C(N)Nc1ccc2[nH]c3c(c2c1)C[C@@]1(O)[C@H]2Cc4ccc(O)c5c4[C@@]1(CCN2CC1CC1)[C@H]3O5 [GNTI] | > 10 µM | > 10 µM | > 10 µM | > 10 µM | > 10 µM | 0 | 0 | 0 | 0.1 | 0 | 101% | 97.4% | 104% | 104% | 101% | 99.7% | 95.2% | 99.4% | 95.6% | 102% | 99.7% | 93.5% | 101% | 101% | 104% | 99% | 122% | 111% | 98.2% | 88.1% | 93.8% | 92.7% | 98.3% | 102% | 106%
15 | C=CCc1cccc(/C=N/NC(=O)CN2CCN(Cc3ccccc3)CC2)c1O [PAC-1] | 2.52 µM | 1.77 µM |  | 2 µM | 3.25 µM | 3.3 | 8 | 3.1 | 7.1 | 4.6 | 103% | 103% | 104% | 95.9% | 48.7% | 98.2% | 102% | 91.5% | 82.3% | 8% | 97.5% | 101% | 95.9% | 96.6% | 50.6% | 104% | 105% | 94% | 87% | 11.5% | 89.6% | 103% | 102% | 101% | 15.8%
